Usually IC50 stands for the concentration at which inhibition is half-maximal. A high value points to a need for much substance.

14 compounds from US20180162845A1, “ENHANCER OF ZESTE HOMOLOG 2 INHIBITORS” (GLAXOSMITHKLINE INTELLECTUAL PROPERTY (NO.2) LIMITED, priority 2015, published 2018) can be followed below.

Some results are limits rather than exact numbers.

For the experiment, the target named is T1, EZH2 within the PRC2 complex (Homo sapiens, UniProt Q15910).
T1 construct: FLAG; made in house; host or cells: Sf9 cells
T1 sequence (Q15910 whole entry): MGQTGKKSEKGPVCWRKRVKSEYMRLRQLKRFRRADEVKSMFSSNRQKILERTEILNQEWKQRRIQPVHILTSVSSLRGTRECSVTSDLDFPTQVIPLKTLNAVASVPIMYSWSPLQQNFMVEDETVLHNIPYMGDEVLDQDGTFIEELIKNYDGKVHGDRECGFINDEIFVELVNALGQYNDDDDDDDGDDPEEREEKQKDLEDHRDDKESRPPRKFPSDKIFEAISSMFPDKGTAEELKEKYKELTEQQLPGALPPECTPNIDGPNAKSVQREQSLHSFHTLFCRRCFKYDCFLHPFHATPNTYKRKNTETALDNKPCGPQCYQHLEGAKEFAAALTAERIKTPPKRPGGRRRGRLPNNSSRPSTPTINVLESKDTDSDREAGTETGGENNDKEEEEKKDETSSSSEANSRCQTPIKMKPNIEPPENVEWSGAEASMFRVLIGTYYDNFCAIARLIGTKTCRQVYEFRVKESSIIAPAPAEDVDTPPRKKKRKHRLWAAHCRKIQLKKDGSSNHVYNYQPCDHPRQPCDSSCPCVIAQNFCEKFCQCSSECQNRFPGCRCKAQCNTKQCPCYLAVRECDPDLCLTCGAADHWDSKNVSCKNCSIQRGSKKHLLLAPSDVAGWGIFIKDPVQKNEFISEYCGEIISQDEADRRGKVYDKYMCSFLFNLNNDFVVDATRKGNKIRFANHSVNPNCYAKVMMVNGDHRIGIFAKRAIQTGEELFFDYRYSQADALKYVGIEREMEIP
T1 sequence (O75530 whole entry partner): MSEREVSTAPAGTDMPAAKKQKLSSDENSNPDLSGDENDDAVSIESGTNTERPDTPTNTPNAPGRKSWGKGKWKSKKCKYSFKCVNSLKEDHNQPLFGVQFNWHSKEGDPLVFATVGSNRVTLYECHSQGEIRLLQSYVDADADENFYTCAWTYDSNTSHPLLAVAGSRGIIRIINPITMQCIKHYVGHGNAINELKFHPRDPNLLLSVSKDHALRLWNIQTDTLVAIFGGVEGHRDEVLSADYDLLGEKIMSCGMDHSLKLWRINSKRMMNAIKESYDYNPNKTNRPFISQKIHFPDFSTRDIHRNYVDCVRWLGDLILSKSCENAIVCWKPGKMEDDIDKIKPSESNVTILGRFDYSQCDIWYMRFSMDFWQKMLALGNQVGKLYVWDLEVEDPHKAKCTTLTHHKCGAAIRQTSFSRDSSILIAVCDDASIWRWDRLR
T1 sequence (Q15022 whole entry partner): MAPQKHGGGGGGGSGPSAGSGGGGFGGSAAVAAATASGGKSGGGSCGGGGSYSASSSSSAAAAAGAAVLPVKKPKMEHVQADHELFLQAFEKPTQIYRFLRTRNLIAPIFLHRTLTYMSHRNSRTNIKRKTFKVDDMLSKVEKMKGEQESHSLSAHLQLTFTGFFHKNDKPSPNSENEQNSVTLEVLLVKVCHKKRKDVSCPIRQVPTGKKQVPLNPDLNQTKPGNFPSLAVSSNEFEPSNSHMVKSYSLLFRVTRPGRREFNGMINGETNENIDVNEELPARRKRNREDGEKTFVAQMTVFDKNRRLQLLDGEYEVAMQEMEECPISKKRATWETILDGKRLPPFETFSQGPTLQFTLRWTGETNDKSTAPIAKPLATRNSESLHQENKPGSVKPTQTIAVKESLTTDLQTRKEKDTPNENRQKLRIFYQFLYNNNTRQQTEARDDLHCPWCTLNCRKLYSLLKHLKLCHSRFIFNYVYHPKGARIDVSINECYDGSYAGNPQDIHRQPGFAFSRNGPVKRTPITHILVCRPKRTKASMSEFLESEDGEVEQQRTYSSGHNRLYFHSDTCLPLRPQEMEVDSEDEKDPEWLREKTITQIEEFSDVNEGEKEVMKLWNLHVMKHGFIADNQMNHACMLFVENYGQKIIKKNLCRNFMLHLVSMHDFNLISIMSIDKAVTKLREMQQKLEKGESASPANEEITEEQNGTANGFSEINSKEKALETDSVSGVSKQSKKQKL
T1 sequence (Q09028 whole entry partner): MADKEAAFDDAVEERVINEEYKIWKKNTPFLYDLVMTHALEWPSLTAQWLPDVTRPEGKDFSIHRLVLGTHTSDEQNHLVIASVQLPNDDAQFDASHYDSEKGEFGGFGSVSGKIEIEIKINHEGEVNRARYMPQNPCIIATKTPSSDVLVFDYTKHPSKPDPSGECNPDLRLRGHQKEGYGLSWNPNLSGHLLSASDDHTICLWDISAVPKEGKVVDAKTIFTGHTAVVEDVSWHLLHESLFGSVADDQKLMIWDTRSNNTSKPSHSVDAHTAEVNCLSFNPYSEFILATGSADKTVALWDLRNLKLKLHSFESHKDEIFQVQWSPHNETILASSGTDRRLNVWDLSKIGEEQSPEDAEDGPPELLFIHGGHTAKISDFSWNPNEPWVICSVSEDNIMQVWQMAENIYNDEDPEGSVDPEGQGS
T1 sequence (Q6ZN18 whole entry partner): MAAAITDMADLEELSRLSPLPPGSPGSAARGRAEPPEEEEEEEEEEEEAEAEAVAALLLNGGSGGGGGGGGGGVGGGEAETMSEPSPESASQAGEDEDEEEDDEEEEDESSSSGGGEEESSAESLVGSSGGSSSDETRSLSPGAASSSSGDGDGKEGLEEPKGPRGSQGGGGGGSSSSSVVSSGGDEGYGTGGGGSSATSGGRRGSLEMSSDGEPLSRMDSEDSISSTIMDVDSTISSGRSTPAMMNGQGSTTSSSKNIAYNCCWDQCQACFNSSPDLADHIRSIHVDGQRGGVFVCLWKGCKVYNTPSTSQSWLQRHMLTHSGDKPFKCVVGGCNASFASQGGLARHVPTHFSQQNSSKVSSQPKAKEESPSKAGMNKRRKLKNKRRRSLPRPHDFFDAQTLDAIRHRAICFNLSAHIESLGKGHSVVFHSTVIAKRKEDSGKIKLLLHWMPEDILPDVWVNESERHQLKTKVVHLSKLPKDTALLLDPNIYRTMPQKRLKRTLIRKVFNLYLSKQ
Put plainly: EZH2 methyltransferase scintillation proximity assay (SPA). Conditions: Human PRC2 5 member complex (FLAG-EZH2, EED, SUZ12, RbAp48, AEBP2), biotinylated histone H3K27 peptide, 3H-SAM, 60 min room temperature; ≤10 nM approaches limit of detection. The class given is biochemical. The protocol:
Compounds contained herein were evaluated for their ability to inhibit the methyltransferase activity of EZH2 within the PRC2 complex. Human PRC2 complex was prepared by co-expressing each of the 5 member proteins (FLAG-EZH2, EED, SUZ12, RbAp48, AEBP2) in Sf9 cells followed by co-purification. Enzyme activity was measured in a scintillation proximity assay (SPA) where a tritiated methyl group is transferred from 3H-SAM to a lysine residue on a biotinylated, unmethylated peptide substrate derived from histone H3. The peptides were captured on streptavidin-coated SPA beads and the resulting signal was read on a ViewLux plate reader.
• 1. Prepare 10 mM stock of compounds from solid in 100% DMSO. • 2. Set up an 11-point serial dilution (1:4 dilution, top concentration 10 mM) in 100% DMSO for each test compound in a 384 well plate leaving columns 6 and 18 for DMSO controls. • 3. Dispense 10 nL of compound from the dilution plate into reaction plates (Corning, 384-well polystyrene NBS, Cat# 3673).
• 1. 1× Base Buffer, 50 mM Tris-HCl, pH 8, 2 mM MgCl2: Per 1 L of base buffer, combine 1 M Tris-HCl, pH 8 (50 mL), 1 M MgCl2 (2 mL), and distilled water (948 mL). • 2. 1× Assay Buffer: Per 10 mL of 1× Assay Buffer, combine 1× Base Buffer (9.96 mL), 1 M DTT (40 uL), and 10% Tween-20 (1 uL) to provide a final concentration of 50 mM Tris-HCl, pH 8, 2 mM MgCl2, 4 mM DTT, 0.001% Tween-20. • 3. 2× Enzyme Solution: Per 10 mL of 2× Enzyme Solution, combine 1× Assay Buffer (9.99 mL) and 3.24 uM EZH2 5 member complex (6.17 uL) to provide a final enzyme concentration of 1 nM. • 4. SPA Bead Solution: Per 1 mL of SPA Bead Solution, combine Streptavidin coated SPA beads (PerkinElmer, Cat #RPNQ0261, 40 mg) and 1× Assay Buffer (1 mL) to provide a working concentration of 40 mg/mL. • 5. 2× Substrate Solution: Per 10 mL of 2× Substrate Solution, combine 40 mg/mL SPA Bead Solution (375 uL), 1 mM biotinylated histone H3K27 peptide (200 uL), 12.5 uM 3H-SAM (240 uL; 1 mCi/mL), 1 mM cold SAM (57 uL), and 1× Assay Buffer (9.13 mL) to provide a final concentration of 0.75 mg/mL SPA Bead Solution, 10 uM biotinylated histone H3K27 peptide, 0.15 uM 3H-SAM (˜12 uCi/mL 3H-SAM), and 2.85 uM cold SAM. • 6. 2.67× Quench Solution: Per 10 mL of 2.67× Quench Solution, combine 1 Assay Buffer (9.73 mL) and 10 mM cold SAM (267 uL) to provide a final concentration of 100 uM cold SAM.
• 1. Stamp 10 nL/well of 1000× Compound to test wells (as noted above). • 2. Stamp 10 nL/well of 100% DMSO to columns 6 & 18 (high and low controls, respectively).
• 1. Dispense 5 uL/well of 1× Assay Buffer to column 18 (low control reactions). • 2. Dispense 5 uL/well of 2× Substrate Solution to columns 1-24 (note: substrate solution should be mixed to ensure homogeneous bead suspension before dispensing into matrix reservoir). • 3. Dispense 5 uL/well of 2× Enzyme Solution to columns 1-17, 19-24. • 4. Incubate the reaction for 60 min at room temperature.
• 1. Dispense 6 uL/well of the 2.67× Quench Solution to columns 1-24. • 2. Seal assay plates and spin for ˜1 min at 500 rpm. • 3. Dark adapt plates in the ViewLux instrument for 15-60 min. Read plates • 1. Read the assay plates on the Viewlux Plate Reader utilizing the 613 nm emission filter or clear filter (300 s exposure). • Reagent addition can be done manually or with automated liquid handler.
Percent inhibition was calculated relative to the DMSO control for each compound concentration and the resulting values were fit using standard IC50 fitting parameters within the ABASE data fitting software package.

`COc1cccc(CN2CCC([C@@H](C)c3sc4c(c3C)C(=O)N(Cc3c(C)cc(C)[nH]c3=O)CCC4)CC2)n1` [Example 12, (R)-5-((4,6-Dimethyl-2-oxo-1,2-dihydropyridin-3-yl)methyl)-2-(1-(1-((6-methoxypyridin-2-yl)methyl)piperidin-4-yl)ethyl)-3-methyl-5,6,7,8-tetrahydro-4H-thieno[3,2-c]azepin-4-one]: the IC50 is at most 10 nM.
With `CC[C@@H](c1sc2c(c1C)C(=O)N(Cc1c(C)cc(C)[nH]c1=O)CC2)C1CCN(Cc2ccncc2)CC1` [Example 3, (R)-5-((4,6-Dimethyl-2-oxo-1,2-dihydropyridin-3-yl)methyl)-3-methyl-2-(1-(1-(pyridin-4-ylmethyl)piperidin-4-yl)propyl)-6,7-dihydrothieno[3,2-c]pyridin-4(5H)-one] the figure was at most 10 nM.
For `COc1cc(CN2CCC([C@@H](C)c3sc4c(c3C)C(=O)N(Cc3c(C)cc(C)[nH]c3=O)CC4)CC2)ccn1` [Example 11, (R)-5-((4,6-Dimethyl-2-oxo-1,2-dihydropyridin-3-yl)methyl)-2-(1-(1-((2-methoxypyridin-4-yl)methyl)piperidin-4-yl)ethyl)-3-methyl-6,7-dihydrothieno[3,2-c]pyridin-4(5H)-one] the value was at most 10 nM; for `CC[C@@H](c1sc2c(c1C)C(=O)N(Cc1c(C)cc(C)[nH]c1=O)CC2)C1CCN(Cc2ccccc2)CC1` [Example 2, (R)-2-(1-(1-Benzylpiperidin-4-yl)propyl)-5-((4,6-dimethyl-2-oxo-1,2-dihydropyridin-3-yl)methyl)-3-methyl-6,7-dihydrothieno[3,2-c]pyridin-4(5H)-one], at most 10 nM; for `Cc1cccc(CN2CCC([C@@H](C)c3sc4c(c3C)C(=O)N(Cc3c(C)cc(C)[nH]c3=O)CCC4)CC2)n1` [Example 9, (R)-5-((4,6-Dimethyl-2-oxo-1,2-dihydropyridin-3-yl)methyl)-3-methyl-2-(1-(1-((6-methylpyridin-2-yl)methyl)piperidin-4-yl)ethyl)-5,6,7,8-tetrahydro-4H-thieno[3,2-c]azepin-4-one], at most 10 nM.
Turning to `Cc1cc(C)c(CN2CCCc3sc([C@H](C)C4CCN(Cc5ccccn5)CC4)c(C)c3C2=O)c(=O)[nH]1` [Example 6, (R)-5-((4,6-Dimethyl-2-oxo-1,2-dihydropyridin-3-yl)methyl)-3-methyl-2-(1-(1-(pyridin-2-ylmethyl)piperidin-4-yl)ethyl)-5,6,7,8-tetrahydro-4H-thieno[3,2-c]azepin-4-one], the IC50 was at most 10 nM.
With `CC[C@@H](c1sc2c(c1C)C(=O)N(Cc1c(C)cc(C)[nH]c1=O)CC2)C1CCN(Cc2ccc(Cl)cn2)CC1` [Example 4, (R)-2-(1-(1-((5-Chloropyridin-2-yl)methyl)piperidin-4-yl)propyl)-5-((4,6-dimethyl-2-oxo-1,2-dihydropyridin-3-yl)methyl)-3-methyl-6,7-dihydrothieno[3,2-c]pyridin-4(5H)-one] the figure was at most 10 nM; with `Cc1cc(C)c(CN2CCCc3sc([C@H](C)C4CCN(Cc5ccccc5)CC4)c(C)c3C2=O)c(=O)[nH]1` [Example 10, (R)-2-(1-(1-Benzylpiperidin-4-yl)ethyl)-5-((4,6-dimethyl-2-oxo-1,2-dihydropyridin-3-yl)methyl)-3-methyl-5,6,7,8-tetrahydro-4H-thieno[3,2-c]azepin-4-one], at most 10 nM; with `Cc1cc(C)c(CN2CCCc3sc([C@H](C)C4CCN(Cc5ccc(Cl)cn5)CC4)c(C)c3C2=O)c(=O)[nH]1` [Example 8], at most 10 nM.
With `COc1cc(CN2CCC([C@@H](C)c3sc4c(c3C)C(=O)N(Cc3c(C)cc(C)[nH]c3=O)CCC4)CC2)ccn1` [Example 7, (R)-5-((4,6-Dimethyl-2-oxo-1,2-dihydropyridin-3-yl)methyl)-2-(1-(1-((2-methoxypyridin-4-yl)methyl)piperidin-4-yl)ethyl)-3-methyl-5,6,7,8-tetrahydro-4H-thieno[3,2-c]azepin-4-one] the figure was at most 10 nM; with `Cc1cc(C)c(CN2CCCc3sc([C@H](C)C4CCN(CC5(C)CCCCC5)CC4)c(C)c3C2=O)c(=O)[nH]1` [Example 14, (R)-5-((4,6-Dimethyl-2-oxo-1,2-dihydropyridin-3-yl)methyl)-3-methyl-2-(1-(1-((1-methylcyclohexyl)methyl)piperidin-4-yl)ethyl)-5,6,7,8-tetrahydro-4H-thieno[3,2-c]azepin-4-one], at most 10 nM; with `CC[C@@H](c1sc2c(c1C)C(=O)N(Cc1c(C)cc(C)[nH]c1=O)CC2)C1CCN(Cc2ccccn2)CC1` [Example 1, (R)-5-((4,6-dimethyl-2-oxo-1,2-dihydropyridin-3-yl)methyl)-3-methyl-2-(1-(1-(pyridin-2-ylmethyl)piperidin-4-yl)propyl)-6,7-dihydrothieno[3,2-c]pyridin-4(5H)-one], at most 10 nM.
For `Cc1cc(C)c(CN2CCCc3sc([C@H](C)C4CCN(CC5CCCCC5)CC4)c(C)c3C2=O)c(=O)[nH]1` [Example 13, (R)-2-(1-(1-(cyclohexylmethyl)piperidin-4-yl)ethyl)-5-((4,6-dimethyl-2-oxo-1,2-dihydropyridin-3-yl)methyl)-3-methyl-5,6,7,8-tetrahydro-4H-thieno[3,2-c]azepin-4-one], the IC50 is at most 10 nM.
With `CCC(=C1CCN(Cc2ccnc(OC)c2)CC1)c1scc(C(=O)NCc2c(C)cc(C)[nH]c2=O)c1C` [Example 5, N-((4,6-Dimethyl-2-oxo-1,2-dihydropyridin-3-yl)methyl)-5-(1-(1-((2-methoxypyridin-4-yl)methyl)piperidin-4-ylidene)propyl)-4-methylthiophene-3-carboxamide] the figure was at most 10 nM.
